According to patent US20240139211A1, “METHODS AND COMPOSITIONS FOR TREATING AMYOTROPHIC LATERAL SCLEROSIS” (Amylyx Pharmaceuticals, Inc., priority 2022, published 2024):
Where two headings read alike, the source gives them in different places.

Columns and labels:
MATE1 = biological target: T1, MATE1 (Homo sapiens, UniProt Q96FL8); assay: Inhibitor of MATE1, probe substrate uptake; settings: for potency estimated from few doses: read-out: Estimated IC50, MATE1; for Inhibition of MATE1 / Inhibitor of MATE1: two concentrations per test article
T1 sequence (Q96FL8 1-570): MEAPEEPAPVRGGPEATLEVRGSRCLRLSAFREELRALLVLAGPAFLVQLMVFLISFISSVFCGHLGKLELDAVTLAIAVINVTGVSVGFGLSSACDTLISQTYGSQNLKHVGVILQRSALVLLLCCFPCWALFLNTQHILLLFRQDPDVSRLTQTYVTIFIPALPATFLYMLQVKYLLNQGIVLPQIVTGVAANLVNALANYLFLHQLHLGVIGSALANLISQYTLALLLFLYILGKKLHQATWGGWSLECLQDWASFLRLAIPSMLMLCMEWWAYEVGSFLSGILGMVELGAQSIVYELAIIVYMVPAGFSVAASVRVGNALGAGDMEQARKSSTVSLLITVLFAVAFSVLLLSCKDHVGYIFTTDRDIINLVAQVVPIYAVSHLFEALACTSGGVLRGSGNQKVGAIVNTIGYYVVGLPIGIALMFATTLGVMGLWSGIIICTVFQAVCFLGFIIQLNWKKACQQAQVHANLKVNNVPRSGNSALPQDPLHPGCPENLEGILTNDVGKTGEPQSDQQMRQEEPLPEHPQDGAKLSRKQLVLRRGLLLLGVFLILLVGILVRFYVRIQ

CYP3A4 mRNA = assay: CYP3A4 gene expression induction in hepatocyte cultures; settings: for Inducer of CYP3A4 (conclusion): gene expression and enzyme activity, three donors
in vitro = settings: human, Caco-2
CYP2B6 mRNA = assay: CYP2B6 gene expression induction in hepatocyte cultures; settings: for EC50: read-out: EC50, CYP2B6 gene expression
OCT2 [1] = biological target: T2, OCT2 (Homo sapiens, UniProt O15244); assay: Inhibitor of OCT2, probe substrate uptake; settings: for Inhibition of OCT2 / Inhibitor of OCT2: two concentrations per test article
T2 sequence (O15244 1-555): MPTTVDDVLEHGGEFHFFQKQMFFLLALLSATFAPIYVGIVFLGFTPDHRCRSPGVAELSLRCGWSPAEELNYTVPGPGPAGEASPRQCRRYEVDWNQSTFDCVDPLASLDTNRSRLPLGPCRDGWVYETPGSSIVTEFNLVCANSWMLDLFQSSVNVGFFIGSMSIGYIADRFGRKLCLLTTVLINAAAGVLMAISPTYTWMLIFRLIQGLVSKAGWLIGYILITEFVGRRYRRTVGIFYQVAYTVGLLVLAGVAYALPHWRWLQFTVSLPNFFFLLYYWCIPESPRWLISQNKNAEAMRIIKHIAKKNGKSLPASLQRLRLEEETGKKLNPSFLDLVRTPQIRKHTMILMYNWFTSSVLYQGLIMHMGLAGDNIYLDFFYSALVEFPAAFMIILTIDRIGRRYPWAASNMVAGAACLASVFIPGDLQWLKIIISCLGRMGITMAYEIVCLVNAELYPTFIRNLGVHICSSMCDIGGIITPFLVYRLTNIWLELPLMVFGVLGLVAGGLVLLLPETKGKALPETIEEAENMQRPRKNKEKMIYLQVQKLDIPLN

BCRP = biological target: T3, BCRP (Homo sapiens, UniProt Q9UNQ0); assay: Substrate of BCRP (Caco-2 cells, selective inhibitor)
T3 sequence (Q9UNQ0 1-655): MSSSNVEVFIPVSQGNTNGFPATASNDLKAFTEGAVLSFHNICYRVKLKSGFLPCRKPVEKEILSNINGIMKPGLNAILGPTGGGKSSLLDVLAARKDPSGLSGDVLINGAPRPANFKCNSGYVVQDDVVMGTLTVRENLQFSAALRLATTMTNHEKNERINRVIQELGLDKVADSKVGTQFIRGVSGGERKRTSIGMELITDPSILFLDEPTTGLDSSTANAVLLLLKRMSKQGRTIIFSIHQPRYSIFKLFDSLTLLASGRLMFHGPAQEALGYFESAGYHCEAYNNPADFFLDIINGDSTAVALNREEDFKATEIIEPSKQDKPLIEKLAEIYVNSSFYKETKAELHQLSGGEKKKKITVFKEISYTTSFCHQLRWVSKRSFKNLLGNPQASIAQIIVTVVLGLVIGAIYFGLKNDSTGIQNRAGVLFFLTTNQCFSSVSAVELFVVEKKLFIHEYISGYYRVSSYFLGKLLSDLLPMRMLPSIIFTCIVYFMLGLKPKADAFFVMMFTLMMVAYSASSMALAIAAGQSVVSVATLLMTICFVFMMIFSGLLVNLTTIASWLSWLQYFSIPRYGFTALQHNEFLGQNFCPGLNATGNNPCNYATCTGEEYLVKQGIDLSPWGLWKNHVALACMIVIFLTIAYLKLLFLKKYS

OCT2 [2] = biological target: T2, OCT2; assay: Substrate of OCT2, uptake in HEK293 cells
Text: (§1) Vector-transfected HEK cells were used as a control.

OCT1 = biological target: T4, OCT1 (Homo sapiens, UniProt O15245); assay: Substrate of OCT1, uptake in HEK293 cells
T4 sequence (O15245 1-554): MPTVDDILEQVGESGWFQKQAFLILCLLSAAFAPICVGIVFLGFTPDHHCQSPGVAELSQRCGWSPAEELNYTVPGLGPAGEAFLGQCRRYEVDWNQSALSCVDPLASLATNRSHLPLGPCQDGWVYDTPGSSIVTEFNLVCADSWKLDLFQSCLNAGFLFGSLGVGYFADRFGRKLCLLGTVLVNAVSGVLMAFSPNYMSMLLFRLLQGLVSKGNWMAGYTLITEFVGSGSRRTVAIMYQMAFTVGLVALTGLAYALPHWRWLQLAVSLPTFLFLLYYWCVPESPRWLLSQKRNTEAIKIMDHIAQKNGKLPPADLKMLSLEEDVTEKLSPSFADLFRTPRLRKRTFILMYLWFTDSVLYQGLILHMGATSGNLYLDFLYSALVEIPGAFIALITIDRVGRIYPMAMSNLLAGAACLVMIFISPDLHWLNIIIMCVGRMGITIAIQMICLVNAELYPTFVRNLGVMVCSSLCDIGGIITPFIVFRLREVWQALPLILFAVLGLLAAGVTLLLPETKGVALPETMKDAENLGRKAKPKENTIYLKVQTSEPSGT
Text: as §1

[3] = estimated from two concentrations
[4] = test article 1 and 10 μM, Caco-2 cells

Compound	potency estimated from few doses (MATE1; [3]) [µM]	Inhibition of MATE1 (MATE1)	Inhibitor of MATE1 (MATE1)	Inducer of CYP3A4 (conclusion) (CYP3A4 mRNA)	Papp A→B (in vitro) [×10⁻⁶ cm/s]	Papp B→A (in vitro) [×10⁻⁶ cm/s]	recovery (in vitro) [%]	Emax, CYP2B6 gene expression (CYP2B6 mRNA; Donor 1) [fold]	Emax, CYP2B6 gene expression (CYP2B6 mRNA; Donor 2) [fold]	EC50 (CYP2B6 mRNA; Donor 2) [µM]	Inhibition of OCT2 (OCT2 [1])	Inhibitor of OCT2 (OCT2 [1])	Substrate of BCRP (BCRP; Caco-2, 1 and 10 μM)	Substrate of BCRP (BCRP; [4])	Substrate of OCT2 (OCT2 [2]; 1 and 10 μM)	Substrate of OCT2 (OCT2 [2]; test article 1 and 10 μM)	Substrate of OCT1 (OCT1; 1 and 10 μM)	Substrate of OCT1 (OCT1; test article 1 and 10 μM)	potency estimated from few doses (MATE1; estimated from two doses) [µM]	further results
C[C@H](CCC(=O)NCC(=O)O)[C@H]1CC[C@H]2[C@@H]3[C@@H](O)C[C@@H]4C[C@H](O)CC[C@]4(C)[C@H]3CC[C@]12C [Glycoursodeoxycholic acid, glycoursodeoxycholic acid]	> 100	inhibited	Yes	did not meet the classification requirements to be identified as an inducer of CYP3A4	≥ 2.4	≥ 6.84	≥ 75	5.60	4.53	1.39	did not inhibit	No	as a substrate	Yes	–	–	–	–	–	Maximum fold induction of CYP3A4 gene expression (CYP3A4 mRNA; Donor 2): 3.40 fold; Maximum fold induction of CYP3A4 gene expression (CYP3A4 mRNA; Donor 3): 3.30 fold; efflux ratio at 1 μM (in vitro): 1.86; efflux ratio at 10 μM (in vitro): 2.85; Maximum fold induction of CYP2B6 gene expression (CYP2B6 mRNA; Donor 2): 4.80 fold; Emax, CYP2B6 gene expression (CYP2B6 mRNA; Donor 3): 5.78 fold; Maximum fold induction of CYP2B6 gene expression (CYP2B6 mRNA; Donor 3): 5.68 fold; EC50 (CYP2B6 mRNA; Donor 3): 1.48 µM; Efflux remaining with Ko143 (BCRP; Caco-2): < 18.8%
O=C(O)CCCc1ccccc1 [PB, sodium phenylbutyrate]	< 250	inhibited	Yes	–	≤ 28.9	254	–	8.54	24.4	108	did not inhibit	No	not a substrate	No	–	–	–	–	–	Uptake activity remaining, MATE1 (MATE1; 250 μM): 43.7%; EC50 (CYP2B6 mRNA; Donor 1): 19.1 µM
O=C(O)Cc1ccccc1 [Phenylacetic acid, phenylacetic acid]	–	did not inhibit	No^a	do not identify phenylacetic acid as an inducer of CYP3A4	≥ 26.1	≥ 16.9	≥ 90.2	11.1	–	–	inhibited	Yes	not a substrate	No	not a substrate	No	not a substrate	No	–	Uptake activity remaining, OCT2 (OCT2 [1]; 7500 μM): 24.5%; potency estimated from few doses (OCT2 [1]; read-out: Estimated IC50, OCT2, estimated from two concentrations): < 7500 µM
tauroursodeoxycholic acid [TUDCA]	> 50	inhibited	Yes	did not meet the classification requirements to be identified as an inducer	–	–	–	–	–	–	did not inhibit	No	as a substrate	Yes	not a substrate	No	not a substrate	No	> 50	Inducer of CYP2B6 (conclusion) (CYP2B6 mRNA; gene expression and enzyme activity, three donors): did not meet the classification requirements to be identified as an inducer
ursodeoxycholic acid	< 500	inhibited	Yes	–	–	–	–	–	–	–	did not inhibit	No	not a substrate	No	not a substrate	No	not a substrate	No	< 500	–
